Here are results for three compounds from patent US20100317620A1, “N-PHENYLIMIDAZO[1,2-a]PYRIDINE-2-CARBOXAMIDE COMPOUNDS, PREPARATION AND THERAPEUTIC USE THEREOF” (sanofi-aventis, priority 2008, published 2010).

Counter-ions that a name gives are not always drawn.

T1 sequence (Q06219 whole entry): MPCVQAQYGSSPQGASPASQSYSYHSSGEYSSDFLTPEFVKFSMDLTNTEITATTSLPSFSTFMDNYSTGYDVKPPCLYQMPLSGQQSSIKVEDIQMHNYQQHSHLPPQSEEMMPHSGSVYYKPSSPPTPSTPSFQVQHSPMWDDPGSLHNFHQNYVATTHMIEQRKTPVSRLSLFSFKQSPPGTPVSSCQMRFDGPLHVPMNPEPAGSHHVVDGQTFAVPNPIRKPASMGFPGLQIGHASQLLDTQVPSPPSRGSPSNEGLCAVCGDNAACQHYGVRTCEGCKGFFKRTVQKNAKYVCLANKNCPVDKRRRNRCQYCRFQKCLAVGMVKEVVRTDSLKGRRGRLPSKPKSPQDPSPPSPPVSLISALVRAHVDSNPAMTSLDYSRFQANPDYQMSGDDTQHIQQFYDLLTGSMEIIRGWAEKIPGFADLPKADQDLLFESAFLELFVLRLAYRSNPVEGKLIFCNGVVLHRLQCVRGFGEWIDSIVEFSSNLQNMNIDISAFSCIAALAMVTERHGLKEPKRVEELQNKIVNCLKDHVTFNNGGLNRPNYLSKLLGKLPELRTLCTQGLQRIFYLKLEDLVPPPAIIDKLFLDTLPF

The assay concerns the target T1, murine Nurr1 receptor (Mus musculus, UniProt Q06219).
T1 construct: a cell line (N2A) endogenously expressing the murine Nurr1 receptor; host or cells: Neuro-2A (N2A) mouse neuroblastoma cells stably transfected with 8NBRE-luciferase
Kind of assay: In vitro activity on N2A cells (8NBRE-luciferase reporter). The assay is classed as cell-based. The following applies: N2A cell line endogenously expressing murine Nurr1, stably transfected with NBRE-luciferase; 24 hours incubation. As to the method: Evaluation of the In Vitro Activity on N2A Cells
The activity of the compounds according to the invention was evaluated on a cell line (N2A) endogenously expressing the murine Nurr1 receptor and stably transfected with the NOT binding response element (NBRE) coupled to the luciferase reporter gene. The EC50 values are between 0.01 and 1000 nM. The tests were performed according to the procedure described hereinbelow.
The cell line Neuro-2A is obtained from a standard commercial source (ATCC). The clone Neuro-2A was obtained from a spontaneous tumour originating from a strain of albino mice A by R. J Klebe et al. This line Neuro-2A is then stably transfected with 8NBRE-luciferase. The N2A-8NBRE cells are cultured to the point of confluence in 75 cm^2 culture flasks containing DMEM supplemented with 10% foetal calf serum, 4.5 g/L of glucose and 0.4 mg/ml of geneticin. After culturing for one week, the cells are recovered with 0.25% trypsin for 30 seconds and then resuspended in DMEM without phenol red, containing 4.5 g/L of glucose and 10% Hyclone defatted serum, and placed in white, transparent-based 96-well plates. The cells are deposited at a rate of 60 000 per well in 75 μL for 24 hours before adding the products. The products are applied in 25 μL and incubated for a further 24 hours. On the day of measurement, an equivalent volume (100 μL) of Steadylite is added to each well, and the wells are then left for 30 minutes to obtain complete lysis of the cells and maximum production of the signal. The plates are then measured in a microplate luminescence counter, after having been sealed with an adhesive film. The products are prepared in the form of a 10^−2 M stock solution, and then diluted in 100% of DMSO. Each concentration of product is prediluted in culture medium before incubation with the cells thus containing 0.625% final of DMSO.
(In general: In a reporter assay the amount or activity of a reporter protein is the signal.)
Take `CS(=O)(=O)c1ccc2nc(C(=O)Nc3ccccc3)cn2c1` [Example 16, 6-(Methylsulfonyl)-N-phenylimidazo[1,2-a]pyridine-2-carboxamide and its hydrobromide (1:1)]: the EC50 came to 16 nM.

On to “6-(Isopropylamino)-N-phenylimidazo[1,2-a]pyridine-2-carboxamide and its hydrochloride (1:1) [Example 2]”, for which the EC50 was found to be 1.6 nM.

Regarding `CSc1ccc2nc(C(=O)Nc3ccccc3)cn2c1` [Example 14, 6-(Methylthio)-N-phenylimidazo[1,2-a]pyridine-2-carboxamide and its hydrobromide (1:1)], the EC50 stood at 2 nM.

As a reminder, the EC50 is the concentration that produces a half-maximal response. Low readings indicate greater potency, high ones weaker potency.
